{
  "source": "patent US11549123B2",
  "about": "“Plant EPSP synthases and methods of use” (PIONEER HI-BRED INTERNATIONAL, INC., priority 2015, dated 2023)",
  "key": {"[1]": {"biological_target": "T1, Zea mays EPSPS variant Zm-H6 (868-H6) (Zea mays, UniProt O24566, A1R/A3W/A415G/A71Q/D401G/E301S/E390G/G101A/I207L/K83R/L97C/T278A/T360S/T440Q/V437R)", "T1 sequence (O24566 with tags, fused parts or gaps A1R/A3W/A71Q/K83R/L97C/G101A/I207L/T278A/E301S/T360S/E390G/D401G/A415G/V437R/T440Q)": "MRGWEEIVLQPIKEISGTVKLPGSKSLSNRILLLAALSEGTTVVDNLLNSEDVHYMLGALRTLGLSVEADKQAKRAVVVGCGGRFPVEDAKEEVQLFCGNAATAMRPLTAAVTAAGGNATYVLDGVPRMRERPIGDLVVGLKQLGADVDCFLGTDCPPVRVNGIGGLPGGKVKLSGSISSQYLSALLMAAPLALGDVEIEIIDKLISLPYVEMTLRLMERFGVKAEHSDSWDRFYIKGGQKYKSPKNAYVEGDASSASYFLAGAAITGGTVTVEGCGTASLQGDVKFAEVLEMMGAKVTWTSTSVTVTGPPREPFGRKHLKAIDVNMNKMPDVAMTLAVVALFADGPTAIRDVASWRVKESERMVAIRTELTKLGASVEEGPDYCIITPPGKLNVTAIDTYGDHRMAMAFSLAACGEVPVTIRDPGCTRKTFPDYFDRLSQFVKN", "test": "Rapid two-rate method for (kcat/KM)*KI, Zm-H6", "assay_type": "biochemical", "details": "[E] 0.07 uM, [Gly] 1000 uM", "source_text": "In the Michaelis-Menten equation for steady state reaction velocity with competitive inhibition, the term (kcat/KM)*KI cannot be isolated due to the KM and [S] terms in the denominator. However, if two rate measurements are made at different inhibitor concentrations, those terms can be eliminated by subtraction and (kcat/KM)*KI isolated, as follows:\n[formula] where v0 and v1 are initial velocities without and with inhibitor but at the same substrate and enzyme concentrations. Although Equations 2 and 3 are equally valid, to generate the data in Table 1, rate measurement was performed with and without inhibitor using Equation 3. Source of Reagents, Enzyme and Variants\nEPSPS activity was determined by quantifying the phosphate generated by the reaction. Release of phosphate was coupled to reaction with MESG, catalyzed by purine-nucleoside phosphorylase, using standard methods. The absorbance change that occurs was monitored continuously at 360 nm, where the extinction is 11,200 M-1 cm-1, with a Spectramax plate reader (Molecular Devices). […] The enzyme concentration was adjusted so as to generate sufficient signal without exceeding the limit for linear initial reaction rates. […]\nThere are several practical considerations for accurately estimating (kcat/KM)*KI with the rapid method. […] Conditions can be set so that variants with a pre-determined minimal fitness level are accurately quantified. […]"}, "[2]": {"biological_target": "T2, Zea mays EPSPS variant Zm-H6 (868-H6) with D196V (H6-D196V) (Zea mays, UniProt O24566, A1R/A3W/A415G/A71Q/D195V/D401G/E301S/E390G/G101A/I207L/K83R/L97C/T278A/T360S/T440Q/V437R)", "T2 construct": "shuffled variant 868-H6 plus D196V; E. coli BL21(DE3), Ni-NTA purified", "T2 sequence (O24566 with tags, fused parts or gaps A1R/A3W/A71Q/K83R/L97C/G101A/D195V/I207L/T278A/E301S/T360S/E390G/D401G/A415G/V437R/T440Q)": "T1 sequence (O24566 with tags, fused parts or gaps A1R/A3W/A71Q/K83R/L97C/G101A/I207L/T278A/E301S/T360S/E390G/D401G/A415G/V437R/T440Q) with D196V", "test": "Rapid two-rate method for (kcat/KM)*KI, H6-D196V", "assay_type": "biochemical", "details": "[E] 0.07 uM, [Gly] 1000 uM", "source_text": "There are several practical considerations for accurately estimating (kcat/KM)*KI with the rapid method. […] 2) The inhibitor concentration must be adjusted so as to obtain a degree of inhibition that minimally amplifies the error in the term v0-vi in Equation 3. If inhibition is too little, v0-vi will be small, and the error in the multiplier vi×v0/(v0-vi) will be large. […] 3) Substrate concentration should be set at the approximate KM of the parental variant(s), subject to the sensitivity of the assay. High substrate concentration obscures sensitivity to the inhibitor and reduces stringency for capturing improvements in KM. Depending on the necessity for speed, there exists opportunity for customizing enzyme and inhibitor concentrations. […] The rapid method was repeated for those and obtained data that correlated better with data obtained by substrate saturation analysis. For screening purposes however, that correlation step is not necessary. Conditions can be set so that variants with a pre-determined minimal fitness level are accurately quantified.\nIn Table 15, parameters above the heavy line for the rapid method were obtained under standard conditions. For variants shown below the heavy line, the rapid analysis was repeated with enzyme or glyphosate concentrations adjusted as needed to generate sufficient signal within the limits for linear initial rates."}, "[3]": {"biological_target": "T2, Zea mays EPSPS variant Zm-H6 (868-H6) with D196V (H6-D196V)", "test": "Substrate saturation kinetic analysis with glyphosate, H6-D196V", "assay_type": "biochemical"}, "[4]": {"tested_on": "Type II EPSPS from Agrobacterium sp. strain CP4", "details": "read-out: KM for PEP; U.S. Pat. No. 5,633,435; cited from earlier work"}},
  "note": "Numbering of substitutions follows the chain as printed. pKi: −log10 of the molar value.",
  "data": [
    {"smiles": "O=C(O)CNCP(=O)(O)O", "note": "[glyphosate, N-phosphonomethylglycine]", "values": [
      {"measurement": "(kcat/KM)*KI", "setting": "[1]", "result": 4013},
      {"measurement": "(kcat/KM)*KI", "setting": "[2]", "result": 1704},
      {"measurement": "pKi", "setting": "[3]", "result": 3.16},
      {"measurement": "(kcat/KM)*KI", "setting": "[3]; substrate saturation, H6-D196V", "result": 1860}
    ]},
    {"smiles": "C=C(OP(=O)(O)O)C(=O)O", "note": "[PEP, phosphoenolpyruvate]", "values": [
      {"measurement": "Km", "setting": "[4]", "result": 12, "unit": "µM"}
    ]}
  ]
}
